This is an account of results in patent publication US20190022198A1, “Individualized Immunomodulation Therapy for Neurodegenerative Disorders, CNS Injury and Age-Related Dementia” (Yeda Research and Development Co. Ltd., priority 2012, published 2019).

Experiment [1] has as its system WT mice. The experiment is classed as in vivo, mouse.
Experiment [2] relates to mSOD1 mice. Description: MOG immunization of mSOD1 mice: EAE symptoms, CP trafficking molecules, leukocytes in CSF and spinal cord, survival. The experiment is classed as in vivo, mouse.
The subject of experiment [3] is WT, mSOD and 5XFAD mice. Briefly: Active immunization with MOG and monitoring Tregs and Th1 cells in the blood (Example 19). It is filed as in vivo, mouse. The protocol: 200 μg of MOG35-55 (GL Biochem Ltd., Shanghai) are emulsified in 200 μl […] Freund's adjuvant (IFA) containing 0.5 mg/ml M. tuberculosis (strain H37Ra; BD Diagnostics), and 200 μl is injected subcutaneously to three groups of mice: WT, mSOD and 5XFAD. Control mice for each group are injected subcutaneously with PBS. At days 7, 14 and 28 post immunization, the mice are anesthetized, blood is collected into heparin containing tubes and […] of each sample are treated with ACK lysing buffer (Life Technologies) to remove erythrocytes. For intracellular staining of IFN-γ (corresponding to Th1 cells) the cells are incubated with PMA (10 ng/ml; Sigma-Aldrich) and ionomycin (250 ng/ml; Sigma-Aldrich) for 6 h, and Brefeldin-A ([…]; Sigma-Aldrich) was added for the last 4 h. Intracellular labeling is done with BD Cytofix/Cytoperm Plus Fixation/Permeabilization kit (cat. no. 555028) according to the manufacturer's protocol. For intracellular staining of Foxp3^+ T regulatory cells (Tregs), the cells are stained according to manufacturer's protocol (Mouse Regulatory T Cell Staining Kit, eBioscience, cat. No. 88-8111-40). […] Flow cytometry analysis is performed on each sample using a BD Biosciences LSRII flow cytometer, and the acquired data is analyzed using FlowJo software (Tree star). The ratio between Tregs and Th1 cells is calculated for each sample.

The subject of experiment [4] is CP cells. Briefly: Transepithelial migration assay of CD115+ monocytes across CP cells towards CCL2. The experiment is classed as cell-based, mouse. The settings on record: TNF-α in combination with IFN-γ (data not shown). The protocol:
For transepithelial migration assay, CP cells were isolated as above and plated on 5-μm pore size, 6.5 mm diameter polycarbonate filters in 24-well Transwell chambers (Costar, Corning) and grown for 7 days. The medium of the upper chamber was then replaced with 100 μl of freshly isolated CD115^+ monocytes (1.5×10^6 cells/ml in RPMI 1640 supplemented with 0.5% BSA) and the inserts were transferred to new wells containing RPMI 1640 supplemented with 0.5% BSA and 100 ng/ml CCL2 (PeproTech). The Transwells were then incubated at 37° C., 5% CO2. After 24 h the migrating cells at the lower chamber were removed using cell scraper and CD11b^+ cells were quantified by flow cytometry.
CD115^+ monocytes were isolated as previously reported (Shechter et al., 2009). Briefly, BM cells were harvested from the femur and tibiae of naïve mice, and enriched for mononuclear cells on a Ficoll density gradient. The CD115^+ BM monocyte population was isolated by MACS enrichment using biotinylated anti-CD115 antibodies and streptavidin-coupled magnetic beads (Miltenyi Biotec) according to the manufacturer's protocols. Monocyte purity was checked by flow cytometry based on CD11b reactivity and was 90%.

In experiment [5] the test system is cultured CP cells. Description: Immunocytochemistry of cultured CP cells treated with cytokines. The experiment is classed as cell-based, mouse. The settings on record: cultured cells following TNF-α treatment (data not shown). As to the method: For whole mount staining of the choroid plexus, isolated tissues were fixed with 2.5% paraformaldehyde (PFA) for several hours, and subsequently transferred to PBS containing 0.05% sodium azide. Prior to staining, the dissected tissues were washed and blocked (20% horse serum, 0.3% Triton X-100, and PBS) for 1 h at room temperature with shaking. Whole mount staining with primary (in PBS containing 2% horse serum and 0.3% Triton X-100) and secondary antibodies (in PBS), was performed for 1h at room temperature, with shaking. Each step was followed by three washes in PBS. The tissues were mounted onto slides, using Immu-mount (9990402, from Thermo), and sealed with cover-slips. For staining of sectioned brains, two different tissue preparation protocols (paraffin embedded and microtomed frozen sections) were applied, as previously described (Ziv Y et al (2006b)). For immunocytochemistry, CP cells were isolated as described above and were grown on PLL coated cover slips for 7 days, replacing the medium every 3 days. Cytokines were added for the last 3 days of culture. Following 7 days of culture, the wells were washed with PBS and the cells were fixed either with 2.5% paraformaldehyde for 30 min or methanol-acetone (1:1) for 10 min at −20° C., following by 2 washing steps with PBS. For CCL11 staining, cells were treated with Brefeldin-A 2 hours prior to fixation in order to arrest protein secretion. The cover slips of the cultured CP cells were incubated with the indicated antibodies and mounted with Glycerol Vinyl Alcohol (GVA) mounting solution (Invitrogen). The following primary antibodies were used: rat anti-CD3 (Abcam); rat anti-ICAM-1 (1:100; Abcam), chicken anti-vimentin (1:500, Millipore), rabbit anti-Iba1 (1:300; Wako), goat anti-IL-10 (1:20; R&D), mouse anti-MHC-II (Abcam); mouse anti-Arginase-1 (BD Biosciences); mouse anti-Cytokeratin (Covance); rat anti-CCL11 (R&D Systems); rabbit anti-ZO-1 (Invitrogen); and rabbit anti-Claudin-1 (Invitrogen). Secondary antibodies included: Cy2/Cy3-conjugated donkey anti-rat, mouse or rabbit antibody and Cy3 conjugated donkey anti-mouse, goat, rat, chicken or rabbit (1:200; all from Jackson Immuno Research). The slides were exposed to Hoechst stain (1:2000; Invitrogen) for 1 min. Two negative controls were routinely used in immunostaining procedures, staining with isotype control antibody followed by secondary antibody, and staining with secondary antibody alone. For morphological quantification, average cross-sectional area of epithelial cells was measured following Nissl staining. Cell borders (20-25 cells per picture) were marked and the area was quantified using Image-Pro Plus software in a blinded fashion.

Experiment [6] has as its system CP epithelial cells. Description: Primary culture of choroid plexus cells treated with cytokines, mRNA by real-time qPCR. It is filed as cell-based, mouse. The settings on record: TNF-α 100 ng/ml. The protocol:
Mice were perfused from the left ventricle of the heart with PBS, and their CPs were removed under a dissecting microscope (Stemi DV4; Zeiss) in PBS into tubes containing 0.25% trypsin, and kept on ice. The tubes were shaken for 20 minutes at 37° C. and the tissue was dissociated by pipetting. The cell suspension was washed in culture medium for epithelial cells (DMEM/HAM's F12 (Invitrogen Corp)) supplemented with 10% FCS (Sigma-Aldrich), 1 mM 1-glutamine, 1 mM sodium pyruvate, 100 U/ml penicillin, […] streptomycin, 5 μg/ml Insulin, 20 μM Ara-C, 5 ng/ml sodium selenite, 10 ng/ml EGF, and cultured (˜250,000 cells/well) at 37° C., 5% CO2 in 24-well plates (Corning Incorporated) coated with poly-L-lysine (PLL; Sigma-Aldrich). After 24 hours, the medium was changed, and the cells were either left untreated, or treated with the indicated cytokines (all purchased from PeproTech): IFN-γ, IL-4, IL-10, IL-17A, GM-CSF, IL-6, IL-1β or TNF-α or their combinations for 24 h. Cell viability was quantified by Trypan blue staining after detachment of the cells with 0.25% trypsin for 10 minutes at 37° C. Neutralizing antibodies to TNF-R1 or TNF-R2 ([…], BioLegend) were added 1 h prior to the addition of TNF-α (100 ng/ml). RNA was isolated using the ZR RNA microprep kit (Zymo Research) according to the manufacturer's protocol.
Total RNA of the hippocampus was extracted with TRI reagent (MRC, Cincinnati, Ohio) and was purified from the lysates and spinal cord using the RNeasy kit (Qiagen, Hilden, Germany). Total RNA of the choroid plexus was extracted using the RNA MicroPrep kit (Zymo Research). mRNA (1 μg) was converted to cDNA using High Capacity cDNA Reverse Transcription Kit (Applied Biosystems). The expression of specific mRNAs was assayed using fluorescence based real-time quantitative PCR (qPCR). qPCR reactions were performed using Power SYBR Green PCR Master Mix (Applied Biosystems). Quantification reactions were performed in triplicates for each sample using the standard curve method. Glyceraldehyde 3-phosphate dehydrogenase (GAPDH), Peptidylprolyl isomerase A (PPIA), and hypoxanthine guanine phosphoribosyltransferase (HPRT) were chosen as reference genes according to their stability in the target tissue. The amplification cycles were 95° C. for 5 sec, 60° C. for 20 sec, and 72° C. for 15 sec. At the end of the assay, a melting curve was constructed to evaluate the specificity of the reaction. For some genes, the cDNA was pre-amplified in 14 PCR cycles with non-random PCR primers, thus increasing the sensitivity of the subsequent real-time PCR analysis (PreAmp Master Mix Kit, Applied Biosystems). For these genes, expression was determined using TaqMan Real-Time PCR, according to manufacturer's instructions (Applied Biosystems). All quantitative real-time PCR reactions were performed and analyzed using the 7500 Real-Time PCR System (Applied Biosystems). The following TaqMan probes were used: Mm02342430_g1 (ppia), Mm00446968_m1 (hprt), Mm00445260_m1 (il-4), Mm01168134_m1 (ifn-γ), Mm00441238_m1 (ccl11), Mm00475988_m1 (arg-1). In addition, the following primers were used: […]
A general note: In qPCR the cycle at which signal appears reflects the starting amount.

Regarding “MOG35-55 (MEVGWYRSPFSRVVHLYRNGK; emulsified in adjuvant) [emulsified in incomplete Freund's adjuvant containing 0.5 mg/ml M. tuberculosis]”, in experiment [1] (14 days post immunization, relative to naïve or OVA-immunized mice), the “infiltrating T cells in the CSF” value is reported as “increase of infiltrating T cells”. For the same substance, the “expression of ICAM-1 by the CP epithelium” value in experiment [1] (mouse, in vivo) is on record as “induced the expression of ICAM-1”. Further, in experiment [2] (14 days post immunization), the “total leukocyte numbers, including T cells and CD4+ T cells, in the CSF” value was “increase in total leukocyte numbers”. Also, the “expression of trafficking molecules (ICAM-1, CCL5, CXCL9, CXCL10) in the CP” value in experiment [2] (14 days post immunization, compared to non-immunized mice) is recorded as “significant increase in the expression of trafficking molecules”. Besides, in experiment [2] (28 days post immunization), the “CD4+ T cell numbers in the spinal cord parenchyma” value is reported as “remained elevated” and the “local expression of IL-10 in the spinal cord” value is “increased local expression of IL-10”. The “spatial distribution of infiltrating T cells” value in experiment [2] (28 days post immunization, immunized mSOD1 mice (data not shown)) is recorded as “T cells were found in the gray matter of the spinal cord ventral horn”. Besides, the “lifespan compared to PBS injected mice” value in experiment [2] (average survival age and Kaplan-Meier curves, logrank p=0.024) is reported as “significantly longer lifespan”. In experiment [2] (day 28 post immunization), the “Foxp3+ Tregs in the CSF” value is given as “significant elevation of Tregs” and the “Foxp3+ Tregs in the spinal cord parenchyma” value is “significant elevation of Tregs”. Besides, in experiment [2] (immunized mSOD1 mice), the “mice still alive at the age of 154 days” value worked out at 90%. In addition, the average survival in experiment [2] (immunized mSOD1 mice, n=10 per group) was 159.5 ± 2.2 days. In experiment [2] (immunized versus untreated mSOD1 mice), this substance returned an increased average survival of 15 days. In experiment [2] (mouse, in vivo), the “CD4+ T cells in the spinal cord parenchyma” value is listed as “increased infiltration of CD4^+ T cells” and the “expression of TGF-β1 in the spinal cord parenchyma” value is reported as “elevated”. The “ratio of Tregs to Th1 cells in blood” value in experiment [3] (7 or 14 days following immunization, versus control group) was “lower”. Moreover, in experiment [3] (28 days following immunization, relative to 7 or 14 days), the “ratio of Tregs to Th1 cells in blood” value is reported as “increase”.

In the case of TNF-α, the “monocyte trafficking through the CP towards CCL2” value in experiment [4] is recorded as “stimulated the CP to mediate monocyte trafficking towards CCL2”. Further, the IFN-γR immunostaining entry in experiment [5] is recorded as “elevation of IFN-γR”. Also, the “expression of IFN-γ-receptor (IFN-γR) mRNA” value in experiment [6] (CP epithelial cells, 24 h, IL-1β 100 ng/ml, IL-6 10 ng/ml) was “elevated the expression of IFN-γ-receptor”. Further, the MADCAM-1 expression result in experiment [6] (cultured CP cells, 24 hours, IFN-γ independent) is “upregulated”.
